Experimental data taken from patent US8377424B2, “Treatment of periodontal disease” (Mars, Incorporated, priority 1996, dated 2013).

Columns and labels:
[1] = system: Helicobacter pylori; assay: Disk diffusion bioassay, H. pylori; assay type: cell-based; details: control disk containing 80 ug metronidazole
Protocol: (§1) A study was conducted to evaluate the antimicrobial activity of procyanidin oligomers against Helicobacter pylori and Staphylococcus aureus. Pentamer enriched material was prepared as described in Example 13, Method A and analyzed as described in Example 14, Method C, where 89% was pentamer, and 11% was higher oligomers (n is 6 to 12). Purified pentamer (96.3%) was prepared as described in Example 14, Method D.
(§2) Helicobacter pylori and Staphylococcus aureus were obtained from the American Type Culture Collection (ATCC). For H. pylori, the vial was rehydrated with 0.5 mL Trypticase Soy broth and the suspension transferred to a slant of fresh TSA containing 5% defibrinated sheep blood. The slant was incubated at 37° C. for 3 to 5 days under microaerophilic conditions in anaerobic jars (5 to 10% carbon dioxide; CampyPakPlus, BBL). When good growth was established in the pool of broth at the bottom of the slant, the broth was used to inoculate additional slants of TSA with sheep blood. Because viability decreased with continued subculturing, the broth harvested from the slants was pooled and stored at −80° C. Cultures for assay were used directly from the frozen vials. […]
(§3) A cell suspension of each culture was prepared (H. pylori, 10^8 to 10^9 cfu/mL; S. aureus 10^6 to 10^7 cfu/mL) and 0.5 mL spread onto TSA plates with 5% sheep blood. […] Zones of inhibition were measured following outgrowth.

[2] = Rancimat oxidative stability test of peanut oil; details: Rancimat 100° C., 20 cc/min air, control 10.5 ± 0.7
Protocol: The procedures described in Examples 1, 2 and 3 were used to prepare cocoa extracts which were manipulated further to produce two fractions from gel permeation chromatography. These two fractions are actually combined fractions A through C, and D and E (See FIG. 1) whose antioxidant properties were compared against the synthetic antioxidants BHA and BHT.
Peanut Oil was pressed from unroasted peanuts after the skins were removed. 50 μL of methanol solubilized antioxidant was added to each sample to aid in dispersion of the antioxidant. A control sample was prepared with 50 μL of methanol containing no antioxidant.
The samples were evaluated in duplicate, for oxidative stability using the Rancimat stability test at 100° C. and 20 cc/min of air. Experimental parameters were chosen to match those used with the Active oxygen Method (AOM) or Swift Stability Test (Van oosten et al., 1981). Results are reported in Table 8 as hours required to reach a peroxide level of 100 meq.

[3] = system: Staphylococcus aureus; assay: Disk diffusion bioassay, S. aureus; assay type: cell-based; details: control disk containing 30 ug vancomycin
Protocol: as §1, §2, §3

Compound: Cc1ncc([N+](=O)[O-])n1CCO [Metronidazole, metronidazole]
- H. pylori Inhibition [1]: 11 mm

Compound: Cc1cc(C(C)(C)C)c(O)c(C(C)(C)C)c1 [BHT, Butylated Hydroxytoluene]
- Oxidative Stability of Peanut Oil, hours required to reach a peroxide level of 100 meq, average ([2]; 20 ppm): 16.5 ± 2.1 h
- Oxidative Stability of Peanut Oil, hours required to reach a peroxide level of 100 meq, average ([2]; 100 ppm): 12.5 ± 2.1 h

Compound: CN[C@H](CC(C)C)C(=O)N[C@H]1C(=O)N[C@@H](CC(N)=O)C(=O)N[C@H]2C(=O)N[C@H]3C(=O)N[C@H](C(=O)N[C@H](C(=O)O)c4cc(O)cc(O)c4-c4cc3ccc4O)[C@H](O)c3ccc(c(Cl)c3)Oc3cc2cc(c3O[C@@H]2O[C@H](CO)[C@@H](O)[C@H](O)[C@H]2O[C@H]2C[C@](C)(N)[C@H](O)[C@H](C)O2)Oc2ccc(cc2Cl)[C@H]1O [Vancomycin, vancomycin]
- S. aureus Inhibition [3]: 15 mm
